Source: patent US5714494A, “Xanthines in the 7th position with a benzyl acetic acid moiety” (Bayer Aktiengesellschaft, priority 1995, dated 1998)

Experiments:
[1] = tested on: ApoB-100-associated lipoproteins; experiment: Inhibition of the release of ApoB-100-associated lipoproteins from HepG2 cells (immunoassay for human LDL); type: cell-based; settings: Homo sapiens, HepG2, HepG2 cells; light absorption 450 nm vs solvent control
Outline: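 HepG2 cells grown in RPMI 1640 with 10% foetal calf serum, with ApoB-100 lipoprotein secreted into supernatant quantified by sandwich ELISA. Capture used affinity-purified rabbit anti-LDL and detection used peroxidase-conjugated monoclonal anti-LDL with TMB/H2O2, read at 450 nm after H2SO4. IC50 is the concentration halving absorbance versus solvent control.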

[2] = tested on: intestinal triglyceride absorption; experiment: Inhibition of intestinal triglyceride absorption in vivo (rats); set-up: species or system male Wistar rats; settings: Rattus norvegicus, po; serum triglyceride increase 2 h after triglyceride loading; fasting rats; read-out: Absorption ED50 or % inhibition
Description: The substances which are to be investigated for their triglyceride absorption-inhibiting action in vivo are administered orally to male Wistar rats having a body weight of between 170 and 230 g. For this purpose, the animals are divided into groups of 6 animals 18 hours before administration of the substance and the feed is then withdrawn from them. Drinking water is available to the animals ad libitum. The animals of the control groups receive an aqueous tragacanth suspension or a tragacanth suspension which contains olive oil. The tragacanth-olive oil suspension is prepared using an Ultra-Turrax. The substances to be investigated are suspended directly before substance administration in a corresponding tragacanth-olive oil suspension, also using an Ultra-Turrax.
Before stomach tube application, blood is taken from each rat by puncture of the retroorbital venous plexus to determine the basal serum triglyceride content. The tragacanth suspension, the tragacanth-olive oil suspensions without substance (control animals) and the substances suspended in a corresponding tragacanth-olive oil suspension are then administered to the fasting animals using a stomach tube. Further taking of blood for the determination of the postprandial serum triglyceride rise is carried out, as a rule, 1,2 and 3 hours after stomach tube application.
The blood samples are centrifuged and, after recovering the serum, the triglycerides are determined photometrically using an EPOS analyzer 5060 (Eppendorf Geratebau, Netheler & Hinz GmbH, Hamburg). The triglycerides are determined by fully enzymatic means using a commercially available UV test.
The postprandial serum triglyceride increase is determined by subtraction of the triglyceride preliminary value of each animal from its corresponding postprandial triglyceride concentrations (1,2 and 3 hours after administration).
The differences (in mmol/l) at each time 1, 2 and 3 hours) are averaged in the groups, and the average values of the serum triglyceride increase (ΔTG) of the substance-treated animals are compared with the animals which only received the tragacanth-oil suspension.
Likewise, the serum triglyceride course of the control animals which received only tragacanth is calculated. The substance effect at each time (1, 2 or 3 hours) is determined as follows and given in Δ% of the oil-loaded control. [formula]
Effect of 10 mg of test substance/kg of body weight p.o. on the triglyceride increase (Δ%) 2 h after a triglyceride loading in the serum of fasting rats. The serum triglyceride increase of fat-loaded control animals based on the serum triglyceride level of tragacanth control animals corresponds to 100%. n=6 animals per group.
Statistical assessment was carried out using student3 s t test after prior checking of the variances for homogeneity.

[3] = tested on: VLDL secretion; experiment: Determination of VLDL secretion in vivo in the hamster (Triton hamster); set-up: species or system golden hamster; settings: 6 mg/kg i.v.
Description: The effects of the test substances on VLDL secretion in vivo is investigated in the hamster. To do this, golden hamsters are anaesthetized with Ketavet (83 mg/kg s.c.) and Nembutal (50 mg/kg i.p.) after premedication with atropine ([…] s.c.). When the animals have become reflex-free, the jugular vein is exposed and cannulated. 0.25 ml/kg of a 20% strength solution of Triton WR 1339 in physiological saline solution is then administered. This detergent inhibits the lipoprotein lipase and thus leads to an increase in the triglyceride level as a result of lack of catabolism of secreted VLDL particles. This triglyceride increase can be used as a measure of the VLDL secretion rate. Blood is taken from the animals before and one and two hours after administration of the detergent by puncture of the retroorbital venous plexus. The blood is incubated for two hours at room temperature, then overnight at 4° C. in order to finish clotting completely. […] The triglyceride concentration in the serum thus obtained is determined with the aid of a modified commercially available enzyme test (Merckotest® triglyceride No. 14354). […] The optical density is then determined at a wavelength of 492 nm in an automatic plate-reading apparatus (SLT spectra). […] The triglyceride concentration contained in the samples is determined with the aid of a standard curve measured in parallel. […]

- IC50 [1]: 34 nM
SMILES: Cn1c(=O)c2c(nc(-c3ccccc3)n2Cc2ccc(C(C(=O)N[C@@H](CO)c3ccccc3)C3CCCC3)cc2)n(C)c1=O (stereo partly shown) [Example 129]
- ED50 [2]: 20 mg/kg
- Triton hamster % CH inhibition 2 h after substance ([3]; cholesterol): 25%
- Triton hamster % TG inhibition 2 h after substance ([3]; triglycerides): 25%
